Legend:
[1] = target: JAK2 (recombinant purified GST-tagged catalytic domain) (Homo sapiens (Human), UniProt O60674); assay: Jak Biochemical HTRF Assay (JAK2); settings: [ATP] 8.5 μM
[2] = target: JAK1 (recombinant purified GST-tagged catalytic domain) (Homo sapiens (Human), UniProt P23458); assay: Jak Biochemical HTRF Assay (JAK1); settings: [ATP] 31.8 μM
In short: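 HTRF format, biotinylated peptide substrate; ATP-initiated reaction 120 min RT; EDTA quench + streptavidin-Dylight 650/Eu-anti-pY20 detection, 60 min RT; signal = 665/615 ratio ×10,000; normalized % inhibition, 4-parameter fit → IC50.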

Sequence of JAK2 (recombinant purified GST-tagged catalytic domain) (O60674 849-1124): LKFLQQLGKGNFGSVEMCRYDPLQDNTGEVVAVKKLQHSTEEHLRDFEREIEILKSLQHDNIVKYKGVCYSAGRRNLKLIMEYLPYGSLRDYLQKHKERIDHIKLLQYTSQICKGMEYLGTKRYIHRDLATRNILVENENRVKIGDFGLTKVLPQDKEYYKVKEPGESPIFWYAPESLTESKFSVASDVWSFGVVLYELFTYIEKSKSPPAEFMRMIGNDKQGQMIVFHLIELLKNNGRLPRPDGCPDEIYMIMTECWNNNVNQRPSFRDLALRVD
Sequence of JAK1 (recombinant purified GST-tagged catalytic domain) (P23458 875-1153): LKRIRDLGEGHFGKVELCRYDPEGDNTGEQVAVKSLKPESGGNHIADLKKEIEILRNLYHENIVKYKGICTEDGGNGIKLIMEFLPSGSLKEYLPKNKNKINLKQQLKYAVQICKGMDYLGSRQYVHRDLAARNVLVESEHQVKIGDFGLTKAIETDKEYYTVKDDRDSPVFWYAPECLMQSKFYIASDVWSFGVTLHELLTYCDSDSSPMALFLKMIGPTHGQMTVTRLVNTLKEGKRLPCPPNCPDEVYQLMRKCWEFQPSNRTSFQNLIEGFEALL

Compound	IC50 [1] [nM]	IC50 [2] [nM]
CN(C)S(=O)(=O)c1ccc(Nc2nn(C3(CC#N)CCN(Cc4ncco4)CC3)c3cc[nH]c(=O)c23)cc1 [Example 8-12, 4-({1-[4-(cyanomethyl)-1-(1,3-oxazol-2-ylmethyl)piperidin-4-yl]-4-oxo-4,5-dihydro-1H-pyrazolo[4,3-c]pyridin-3-yl}amino)-N,N-dimethylbenzenesulfonamide]	0.99	0.26
CN(C)S(=O)(=O)c1ccc(Nc2nn(C3(CC#N)CCN(Cc4ccc(-c5ccon5)cc4)CC3)c3cc[nH]c(=O)c23)cc1 [Example 8-13, 4-({1-[4-(cyanomethyl)-1-(4-isoxazol-3-ylbenzyl)piperidin-4-yl]-4-oxo-4,5-dihydro-1H-pyrazolo[4,3-c]pyridin-3-yl}amino)-N,N-dimethylbenzenesulfonamide]	0.75	0.31
CN(C)S(=O)(=O)c1ccc(Nc2nn(C3(CC#N)CCN(Cc4ccc(N5CCCC5=O)cc4)CC3)c3cc[nH]c(=O)c23)cc1 [Example 8-14, 4-[(1-{4-(cyanomethyl)-1-[4-(2-oxopyrrolidin-1-yl)benzyl]piperidin-4-yl}-4-oxo-4,5-dihydro-1H-pyrazolo[4,3-c]pyridin-3-yl)amino]-N,N-dimethylbenzenesulfonamide]	2.84	0.73
CN(C)S(=O)(=O)c1ccc(Nc2nn(C3(CC#N)CCN(CCCc4ccccc4)CC3)c3cc[nH]c(=O)c23)cc1 [Example 8-15, 4-({1-[4-(cyanomethyl)-1-(3-phenylpropyl)piperidin-4-yl]-4-oxo-4,5-dihydro-1H-pyrazolo[4,3-c]pyridin-3-yl}amino)-N,N-dimethylbenzenesulfonamide]	2.84	0.53
CC(c1c(F)cccc1F)N1CCC(CC#N)(n2nc(Nc3ccc(S(=O)(=O)N(C)C)cc3)c3c(=O)[nH]ccc32)CC1 (stereo not shown) [Example 8-17, 4-((1-(4-(cyanomethyl)-1-(1-(2,6-difluorophenyl)ethyl)piperidin-4-yl)-4-oxo-4,5-dihydro-1H-pyrazolo[4,3-c]pyridin-3-yl)amino)-N,N-dimethylbenzenesulfonamide]	3.26	1.4
CN(C)S(=O)(=O)c1ccc(Nc2nn(C3(CC#N)CCN(CCc4ccccc4)CC3)c3cc[nH]c(=O)c23)cc1 [Example 8-18, 4-((1-(4-(cyanomethyl)-1-phenethylpiperidin-4-yl)-4-oxo-4,5-dihydro-1H-pyrazolo[4,3-c]pyridin-3-yl)amino)-N,N-dimethylbenzenesulfonamide]	14	3.16
CN(C)S(=O)(=O)c1cccc(Nc2nn(C3(CC#N)CCN(Cc4cccnc4)CC3)c3cc[nH]c(=O)c23)c1 [Example 8-19, 3-({1-[4-(cyanomethyl)-1-(pyridin-3-ylmethyl)piperidin-4-yl]-4-oxo-4,5-dihydro-1H-pyrazolo[4,3-c]pyridin-3-yl}amino)-N,N-dimethylbenzenesulfonamide]	1.98	1.19
CN(C)S(=O)(=O)c1ccc(Nc2nn(C3(CC#N)CCN(C(=O)CC(F)(F)F)CC3)c3cc[nH]c(=O)c23)cc1 [Example 9-2, 4-({1-[4-(cyanomethyl)-1-(3,3,3-trifluoropropanoyl)piperidin-4-yl]-4-oxo-4,5-dihydro-1H-pyrazolo[4,3-c]pyridin-3-yl}amino)-N,N-dimethylbenzenesulfonamide]	0.31	0.08
COCC(=O)N1CCC(CC#N)(n2nc(Nc3ccc(S(=O)(=O)N(C)C)cc3)c3c(=O)[nH]ccc32)CC1 [Example 9-3, 4-({1-[4-(cyanomethyl)-1-(methoxyacetyl)piperidin-4-yl]-4-oxo-4,5-dihydro-1H-pyrazolo[4,3-c]pyridin-3-yl}amino)-N,N-dimethylbenzenesulfonamide]	1.63	0.24
CN(C)CC(=O)N1CCC(CC#N)(n2nc(Nc3ccc(S(=O)(=O)N(C)C)cc3)c3c(=O)[nH]ccc32)CC1 [Example 9-4, 4-({1-[4-(cyanomethyl)-1-(N,N-dimethylglycyl)piperidin-4-yl]-4-oxo-4,5-dihydro-1H-pyrazolo[4,3-c]pyridin-3-yl}amino)-N,N-dimethylbenzenesulfonamide]	5.17	0.65
CN(C)S(=O)(=O)c1ccc(Nc2nn(C3(CC#N)CCN(C(=O)C(C)(C)C)CC3)c3cc[nH]c(=O)c23)cc1 [Example 9-5, 4-({1-[4-(cyanomethyl)-1-(2,2-dimethylpropanoyl)piperidin-4-yl]-4-oxo-4,5-dihydro-1H-pyrazolo[4,3-c]pyridin-3-yl}amino)-N,N-dimethylbenzenesulfonamide]	3.05	0.55
CN(C)S(=O)(=O)c1ccc(Nc2nn(C3(CC#N)CCN(C(=O)C4CC4)CC3)c3cc[nH]c(=O)c23)cc1 [Example 9-6, 4-({1-[4-(cyanomethyl)-1-(cyclopropylcarbonyl)piperidin-4-yl]-4-oxo-4,5-dihydro-1H-pyrazolo[4,3-c]pyridin-3-yl}amino)-N,N-dimethylbenzenesulfonamide]	0.29	0.08
CN(C)S(=O)(=O)c1ccc(Nc2nn(C3(CC#N)CCN(C(=O)C4CC(F)(F)C4)CC3)c3cc[nH]c(=O)c23)cc1 [Example 9-7, 4-[(1-{4-(cyanomethyl)-1-[(3,3-difluorocyclobutyl)carbonyl]piperidin-4-yl}-4-oxo-4,5-dihydro-1H-pyrazolo[4,3-c]pyridin-3-yl)amino]-N,N-dimethylbenzenesulfonamide]	0.51	0.09
CN(C)S(=O)(=O)c1ccc(Nc2nn(C3(CC#N)CCN(C(=O)C4CCCCC4)CC3)c3cc[nH]c(=O)c23)cc1 [Example 9-8, 4-({1-[4-(cyanomethyl)-1-(cyclohexylcarbonyl)piperidin-4-yl]-4-oxo-4,5-dihydro-1H-pyrazolo[4,3-c]pyridin-3-yl}amino)-N,N-dimethylbenzenesulfonamide]	1.21	0.16
CN(C)S(=O)(=O)c1ccc(Nc2nn(C3(CC#N)CCN(C(=O)C45CC6C[C@H](C4)C[C@@H](C6)C5)CC3)c3cc[nH]c(=O)c23)cc1 [Example 9-9, 4-[(1-{4-(cyanomethyl)-1-[(3S,5S,7S)-tricyclo[3.3.1.1^3,7]dec-1-ylcarbonyl]piperidin-4-yl}-4-oxo-4,5-dihydro-1H-pyrazolo[4,3-c]pyridin-3-yl)amino]-N,N-dimethylbenzenesulfonamide]	38.8	3.96
CN(C)S(=O)(=O)c1ccc(Nc2nn(C3(CC#N)CCN(C(=O)CC4CC4)CC3)c3cc[nH]c(=O)c23)cc1 [Example 9-10, 4-({1-[4-(cyanomethyl)-1-(cyclopropylacetyl)piperidin-4-yl]-4-oxo-4,5-dihydro-1H-pyrazolo[4,3-c]pyridin-3-yl}amino)-N,N-dimethylbenzenesulfonamide]	1.07	0.17
CN(C)S(=O)(=O)c1ccc(Nc2nn(C3(CC#N)CCN(C(=O)CCC4CC4)CC3)c3cc[nH]c(=O)c23)cc1 [Example 9-11, 4-({1-[4-(cyanomethyl)-1-(3-cyclopropylpropanoyl)piperidin-4-yl]-4-oxo-4,5-dihydro-1H-pyrazolo[4,3-c]pyridin-3-yl}amino)-N,N-dimethylbenzenesulfonamide]	1.15	0.14

— patent US9957264B2 (Merck Sharp & Dohme Corp., priority 2013, dated 2018)
